# Measurements published in US8513238B2 (Hoffmann-La Roche Inc., priority 2010, dated 2013).
# Structures can show the parent of a compound that is named as a salt.
# Molecular target: T1, human V1a receptor (Homo sapiens, UniProt P37288)
# T1 construct: expressed in transfected cells; host or cells: HEK293 cells, transiently transfected; membranes prepared
# Experiment: human V1a receptor binding (3H-Vasopressin SPA, HEK293 membranes)
# Conditions: membranes of HEK293 cells transiently transfected with human V1a receptor, Ki by Cheng-Prussoff; for Ki: read-out: pKi (hV1a) (converted)
# Procedure: The human V1a receptor was cloned by RT-PCR from total human liver RNA. The coding sequence was subcloned in an expression vector after sequencing to confirm the identity of the amplified sequence. […] Cell membranes were prepared from HEK293 cells transiently transfected with the expression vector and grown in 20 liter fermenters with the following protocol.
# 50 g of cells are resuspended in 30 ml freshly prepared ice cold Lysis buffer (50 mM HEPES, 1 mM EDTA, 10 mM magnesium dichloride adjusted to pH=7.4+complete cocktail of protease inhibitor (Roche Diagnostics)). Homogenized with Polytron for 1 min and sonicated on ice for 2×2 minutes at 80% intensity (Vibracell sonicator). The preparation is centrifuged 20 min at 500 g at 4° C., the pellet is discarded and the supernatant centrifuged 1 hour at 43,000 g at 4° C. (19,000 rpm). The pellet is resuspended in 12.5 ml Lysis buffer+12.5 ml sucrose 20% and homogenized using a Polytron for 1-2 min. The protein concentration is determined by the Bradford method and aliquots are stored at −80° C. until use. For binding studies 60 mg Yttrium silicate SPA beads (Amersham®) are mixed with an aliquot of membrane in binding buffer (50 mM Tris, 120 mM sodium chloride, 5 mM potassium chloride, 2 mM calcium dichloride, 10 mM magnesium dichloride) for 15 minutes with mixing. 50 μl of bead/membrane mixture is then added to each well of a 96 well plate, followed by 50 μl of 4 nM 3H-Vasopressin (American Radiolabeled Chemicals). For total binding measurement 100 μl of binding buffer are added to the respective wells, for non-specific binding 100 μl of 8.4 mM cold vasopressin and for compound testing 100 μl of a serial dilution of each compound in 2% dimethyl sulfoxide. The plate is incubated 1 h at room temperature, centrifuged 1 min at 1000 g and counted on a Packard Top-Count. Non-specific binding counts are subtracted from each well and data is normalized to the maximum specific binding set at 100%. To calculate an IC50 the curve is fitted using a non-linear regression model (XLfit) and the Ki is calculated using the Cheng-Prussoff equation.
# T1 sequence (P37288 whole entry): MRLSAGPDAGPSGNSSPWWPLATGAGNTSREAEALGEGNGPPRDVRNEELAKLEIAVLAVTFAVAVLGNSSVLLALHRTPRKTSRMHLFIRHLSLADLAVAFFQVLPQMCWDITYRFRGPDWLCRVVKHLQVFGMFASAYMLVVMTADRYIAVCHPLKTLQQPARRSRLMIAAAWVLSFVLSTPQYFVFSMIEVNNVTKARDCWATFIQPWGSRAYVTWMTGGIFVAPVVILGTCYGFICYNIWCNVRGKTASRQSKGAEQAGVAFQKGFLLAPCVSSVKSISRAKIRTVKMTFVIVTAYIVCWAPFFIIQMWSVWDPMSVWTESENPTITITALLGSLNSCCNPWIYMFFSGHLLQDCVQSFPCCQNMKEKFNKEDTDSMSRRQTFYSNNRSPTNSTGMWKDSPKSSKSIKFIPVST
smiles,measurement,value
"Cc1nc([C@H]2CC[C@H](c3nnc4n3-c3ccc(Cl)cc3CN(C)C4)CC2)ns1 (stereo in doubt) [Example 97, trans-8-Chloro-5-methyl-1-[4-(5-methyl-[1,2,4]thiadiazol-3-yl)-cyclohexyl]-5,6-dihydro-4H-2,3,5,10b-tetraaza-benzo[e]azulene]",Ki,2.88 nM
"CC(C)(C)OC(=O)N1Cc2cc(Cl)ccc2-n2c(nnc2[C@H]2CC[C@H](c3ncco3)CC2)C1 [Example 1, trans-8-Chloro-1-(4-oxazol-2-yl-cyclohexyl)-4H,6H-2,3,5,10b-tetraaza-benzo[e]azulene-5-carboxylic acid tert-butyl ester]",Ki,1 nM
"Clc1ccc2c(c1)CNCc1nnc([C@H]3CC[C@H](c4ncco4)CC3)n1-2 [Example 2, trans-8-Chloro-1-(4-oxazol-2-yl-cyclohexyl)-5,6-dihydro-4H-2,3,5,10b-tetraaza-benzo[e]azulene]",Ki,53.7 nM
"CN1Cc2cc(Cl)ccc2-n2c(nnc2[C@H]2CC[C@H](c3ncco3)CC2)C1 [Example 3, trans-8-Chloro-5-methyl-1-(4-oxazol-2-yl-cyclohexyl)-5,6-dihydro-4H-2,3,5,10b-tetraaza-benzo[e]azulene]",Ki,10.5 nM
"Cc1coc([C@H]2CC[C@H](c3nnc4n3-c3ccc(Cl)cc3CN(C(=O)OC(C)(C)C)C4)CC2)n1 [Example 4, trans-8-Chloro-1-[4-(4-methyl-oxazol-2-yl)-cyclohexyl]-4H,6H-2,3,5,10b-tetraaza-benzo[e]azulene-5-carboxylic acid tert-butyl ester]",Ki,0.398 nM
"Cc1coc([C@H]2CC[C@H](c3nnc4n3-c3ccc(Cl)cc3CNC4)CC2)n1 [Example 5, trans-8-Chloro-1-[4-(4-methyl-oxazol-2-yl)-cyclohexyl]-5,6-dihydro-4H-2,3,5,10b-tetraaza-benzo[e]azulene]",Ki,32.4 nM
"Cc1coc([C@H]2CC[C@H](c3nnc4n3-c3ccc(Cl)cc3CN(C)C4)CC2)n1 [Example 6, trans-8-Chloro-5-methyl-1-[4-(4-methyl-oxazol-2-yl)-cyclohexyl]-5,6-dihydro-4H-2,3,5,10b-tetraaza-benzo[e]azulene]",Ki,3.31 nM
"Cc1cnc([C@H]2CC[C@H](c3nnc4n3-c3ccc(Cl)cc3CN(C(=O)OC(C)(C)C)C4)CC2)o1 [Example 7, trans-8-Chloro-1-[4-(5-methyl-oxazol-2-yl)-cyclohexyl]-4H,6H-2,3,5,10b-tetraaza-benzo[e]azulene-5-carboxylic acid tert-butyl ester]",Ki,0.603 nM
"Cc1cnc([C@H]2CC[C@H](c3nnc4n3-c3ccc(Cl)cc3CNC4)CC2)o1 [Example 8, trans-8-Chloro-1-[4-(5-methyl-oxazol-2-yl)-cyclohexyl]-5,6-dihydro-4H-2,3,5,10b-tetraaza-benzo[e]azulene]",Ki,18.6 nM
"Cc1cnc([C@H]2CC[C@H](c3nnc4n3-c3ccc(Cl)cc3CN(C)C4)CC2)o1 [Example 9, trans-8-Chloro-5-methyl-1-[4-(5-methyl-oxazol-2-yl)-cyclohexyl]-5,6-dihydro-4H-2,3,5,10b-tetraaza-benzo[e]azulene]",Ki,2.19 nM
"Cc1nc([C@H]2CC[C@H](c3nnc4n3-c3ccc(Cl)cc3CN(C(=O)OC(C)(C)C)C4)CC2)oc1C [Example 10, trans-8-Chloro-1-[4-(4,5-dimethyl-oxazol-2-yl)-cyclohexyl]-4H,6H-2,3,5,10b-tetraaza-benzo[e]azulene-5-carboxylic acid tert-butyl ester]",Ki,0.525 nM
"Cc1nc([C@H]2CC[C@H](c3nnc4n3-c3ccc(Cl)cc3CNC4)CC2)oc1C [Example 11, trans-8-Chloro-1-[4-(4,5-dimethyl-oxazol-2-yl)-cyclohexyl]-5,6-dihydro-4H-2,3,5,10b-tetraaza-benzo[e]azulene]",Ki,5.5 nM
"Cc1nc([C@H]2CC[C@H](c3nnc4n3-c3ccc(Cl)cc3CN(C)C4)CC2)oc1C [Example 12, trans-8-Chloro-5-methyl-1-[4-(4,5-dimethyl-oxazol-2-yl)-cyclohexyl]-5,6-dihydro-4H-2,3,5,10b-tetraaza-benzo[e]azulene]",Ki,0.851 nM
"CC(C)(C)OC(=O)N1Cc2cc(Cl)ccc2-n2c(nnc2[C@H]2CC[C@H](c3nccs3)CC2)C1 [Example 13, trans-8-Chloro-1-(4-thiazol-2-yl-cyclohexyl)-4H,6H-2,3,5,10b-tetraaza-benzo[e]azulene-5-carboxylic acid tert-butyl ester]",Ki,1 nM
"Clc1ccc2c(c1)CNCc1nnc([C@H]3CC[C@H](c4nccs4)CC3)n1-2 [Example 14, trans-8-Chloro-1-(4-thiazol-2-yl-cyclohexyl)-5,6-dihydro-4H-2,3,5,10b-tetraaza-benzo[e]azulene]",Ki,28.2 nM
"CN1Cc2cc(Cl)ccc2-n2c(nnc2[C@H]2CC[C@H](c3nccs3)CC2)C1 [Example 15, trans-8-Chloro-5-methyl-1-(4-thiazol-2-yl-cyclohexyl)-5,6-dihydro-4H-2,3,5,10b-tetraaza-benzo[e]azulene]",Ki,3.31 nM
"Cc1csc([C@H]2CC[C@H](c3nnc4n3-c3ccc(Cl)cc3CN(C(=O)OC(C)(C)C)C4)CC2)n1 [Example 16, trans-8-Chloro-1-[4-(4-methyl-thiazol-2-yl)-cyclohexyl]-4H,6H-2,3,5,10b-tetraaza-benzo[e]azulene-5-carboxylic acid tert-butyl ester]",Ki,0.302 nM
"Cc1csc([C@H]2CC[C@H](c3nnc4n3-c3ccc(Cl)cc3CNC4)CC2)n1 [Example 17, trans-8-Chloro-1-[4-(4-methyl-thiazol-2-yl)-cyclohexyl]-5,6-dihydro-4H-2,3,5,10b-tetraaza-benzo[e]azulene]",Ki,7.59 nM
"Cc1csc([C@H]2CC[C@H](c3nnc4n3-c3ccc(Cl)cc3CN(C)C4)CC2)n1 [Example 18, trans-8-Chloro-5-methyl-1-[4-(4-methyl-thiazol-2-yl)-cyclohexyl]-5,6-dihydro-4H-2,3,5,10b-tetraaza-benzo[e]azulene]",Ki,1.7 nM
"Cc1nc([C@H]2CC[C@H](c3nnc4n3-c3ccc(Cl)cc3CN(C(=O)OC(C)(C)C)C4)CC2)cs1 [Example 19, trans-8-Chloro-1-[4-(2-methyl-thiazol-4-yl)-cyclohexyl]-4H,6H-2,3,5,10b-tetraaza-benzo[e]azulene-5-carboxylic acid tert-butyl ester]",Ki,0.2 nM
"Cc1nc([C@H]2CC[C@H](c3nnc4n3-c3ccc(Cl)cc3CNC4)CC2)cs1 [Example 20, trans-8-Chloro-1-[4-(2-methyl-thiazol-4-yl)-cyclohexyl]-5,6-dihydro-4H-2,3,5,10b-tetraaza-benzo[e]azulene]",Ki,12.3 nM
"Cc1nc([C@H]2CC[C@H](c3nnc4n3-c3ccc(Cl)cc3CN(C)C4)CC2)cs1 [Example 21, trans-8-Chloro-5-methyl-1-[4-(2-methyl-thiazol-4-yl)-cyclohexyl]-5,6-dihydro-4H-2,3,5,10b-tetraaza-benzo[e]azulene]",Ki,1.7 nM
"Cc1cc([C@H]2CC[C@H](c3nnc4n3-c3ccc(Cl)cc3CN(C(=O)OC(C)(C)C)C4)CC2)no1 [Example 22, trans-8-Chloro-1-[4-(5-methyl-isoxazol-3-yl)-cyclohexyl]-4H,6H-2,3,5,10b-tetraaza-benzo[e]azulene-5-carboxylic acid tert-butyl ester]",Ki,0.302 nM
"Cc1cc([C@H]2CC[C@H](c3nnc4n3-c3ccc(Cl)cc3CNC4)CC2)no1 [Example 23, trans-8-Chloro-1-[4-(5-methyl-isoxazol-3-yl)-cyclohexyl]-5,6-dihydro-4H-2,3,5,10b-tetraaza-benzo[e]azulene hydrochloride]",Ki,6.46 nM
"Cc1cc([C@H]2CC[C@H](c3nnc4n3-c3ccc(Cl)cc3CN(C)C4)CC2)no1 [Example 24, trans-8-Chloro-1-[4-(5-methyl-isoxazol-3-yl)-cyclohexyl]-5-methyl-5,6-dihydro-4H-2,3,5,10b-tetraaza-benzo[e]azulene]",Ki,1.2 nM
"CCN1Cc2cc(Cl)ccc2-n2c(nnc2[C@H]2CC[C@H](c3cc(C)on3)CC2)C1 [Example 25, trans-8-Chloro-5-ethyl-1-[4-(5-methyl-isoxazol-3-yl)-cyclohexyl]-5,6-dihydro-4H-2,3,5,10b-tetraaza-benzo[e]azulene]",Ki,1.74 nM
"Cc1cc([C@H]2CC[C@H](c3nnc4n3-c3ccc(Cl)cc3CN(C(C)C)C4)CC2)no1 [Example 26, trans-8-Chloro-5-isoproyl-1-[4-(5-methyl-isoxazol-3-yl)-cyclohexyl]-5,6-dihydro-4H-2,3,5,10b-tetraaza-benzo[e]azulene]",pKi (hV1a),9.45
"Cc1cc([C@H]2CC[C@H](c3nnc4n3-c3ccc(Cl)cc3CN(CC(F)F)C4)CC2)no1 [Example 28, trans-8-Chloro-5-(2,2-difluoro-ethyl)-1-[4-(5-methyl-isoxazol-3-yl)-cyclohexyl]-5,6-dihydro-4H-2,3,5,10b-tetraaza-benzo[e]azulene]",Ki,0.603 nM
